Experiments:
Test in all cases: PTP IC50 assay, pNPP or FDP as substrate
Type in all cases: biochemical
Details in all cases: 25° C.
PTP ALPHA = target: T1, PTP ALPHA (Homo sapiens, UniProt P18433)
T1 construct: RTPα intracellular domain construct was obtained; made in house; host or cells: E. coli BL-21 (pGEX 3X)
Description: (§1) The following in vitro assay procedure is preferred to determine the level of activity and effect of the different compounds of the present invention on one or more of the PTPs. Similar assays can be designed along the same lines for any PTP using techniques well known in the art.
(§2) The catalytic assays described herein are performed in a 96-well format. The general procedure begins with the determination of PTP optimal pH using a three-component buffer system that minimizes ionic strength variations across a wide range of buffer pH. Next, the Michaelis-Menten constant, or Km, is determined for each specific substrate-PTP system. This Km value is subsequently used as the substrate reaction concentration for compound screening. Finally, the test PTP is exposed to varying concentrations of compound for fifteen minutes and allowed to react with substrate for ten minutes. The results are plotted as percent inhibition versus compound concentration and the IC50 interpolated from the plot.
(§3) All assays were performed using pNPP or FDP as substrate. The optimum pH was determined for each PTP used.
(§4) PTPase activity was assayed at 25° C. in a 100-μl reaction mixture containing an appropriate concentration of pNPP or FDP as substrate. The reaction was initiated by addition of the PTP and quenched after 10 min by addition of 50 μl of IN NaOH. The non-enzymatic hydrolysis of the substrate was corrected by measuring the control without the addition of the enzyme. The amount of p-nitrophenol produced was determined from the absorbance at 410 nm. To determine the kinetic parameter, Km, the initial velocities were measured at various substrate concentrations and the data were fitted to the Michaelis equation where velocity=(Vmax*[S])/(Km+[S]), and [S]=substrate reaction concentration.
(§5) The effect of the compounds on PTP was evaluated at 25° C. using pNPP or FDP as substrate. PTP was pre-incubated for fifteen minutes with various concentrations of compound. Substrate was then added at a fixed concentration (usually equal to the Km previously calculated). After 10 minutes, NaOH was added to stop the reaction. The hydrolysis of pNPP was followed at 410 nm on the Biotek Powerwave 200 microplate scanning spectrophotometer. The percent inhibition was calculated as follows: Percent Inhibition=[(control signal−compound signal)/control signal] ×100%. The IC50 was then determined by interpolation of a percent inhibition versus compound concentration plot.
(§6) Plasmids designed for bacterial GST-PTP fusion protein expression were derived by insertion of PCR-generated human PTP fragments into pGEX vectors (Pharmacia Biotech). Several of these constructs were then used to subclone phosphatases into pFastBac-1for expression in Sf-9 insect cells. Oligonucleotides used for the initial amplification of PTP genes are shown below. The cDNAs were prepared using the Gilbo BRL superscript preamplification system on RNAs purchased from Clontech.
RTPα intracellular domain construct was obtained, Schlessinger et al., U.S. Pat. No. 5,888,794, the contents of which are hereby incorporated in their entirety into the present application. The RTPα fragment was cloned into pGEX 3× using the following procedure. The portion from EclX I/Xma III/Eag I (N-terminus blunted by Klenow) to Eco RV was cloned into the Sma I site. The EclX I site is approximately 15 residues downstream of the transmembrane domain.

PTP DEP1 = target: T2, PTP DEP1 (Homo sapiens, UniProt Q12913)
T2 construct: GST-fusion proteins encompassing the entire cytoplasmic domain was done by PCR; made in house; host or cells: E. coli BL-21 (pGEX 2T)
T2 sequence (Q12913 997-1337 limits assumed): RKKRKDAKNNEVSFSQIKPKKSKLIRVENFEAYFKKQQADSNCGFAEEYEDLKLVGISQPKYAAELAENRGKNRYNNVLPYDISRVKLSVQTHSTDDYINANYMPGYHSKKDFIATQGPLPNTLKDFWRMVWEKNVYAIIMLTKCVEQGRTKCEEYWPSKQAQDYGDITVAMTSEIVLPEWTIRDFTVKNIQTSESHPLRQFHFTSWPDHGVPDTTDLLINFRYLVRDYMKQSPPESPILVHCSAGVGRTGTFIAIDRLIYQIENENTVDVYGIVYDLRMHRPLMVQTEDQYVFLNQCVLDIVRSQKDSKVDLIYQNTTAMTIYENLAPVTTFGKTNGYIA
Description: as §1, §2, §3, §4, §5, §6
The full length DEP1 cDNA was isolated from a human mammary cDNA library (Clontech). The construction of GST-fusion proteins encompassing the entire cytoplasmic domain was done by PCR using the following oligos; 5′oligo: 5′-[…]-3′ (SEQ ID NO: 20) 3′oligo: 5′-[…]-3′ (SEQ ID NO: 21) It was subsequently ligated into the Eco RI/Bam H1 sites of pGEX 2T.

PTP ZETA = target: T3, PTP ZETA (Homo sapiens, UniProt P23471)
T3 construct: made in house; host or cells: E. coli BL-21 (pGEX 6P-1)
T3 sequence (P23471 1667-2028 limits assumed): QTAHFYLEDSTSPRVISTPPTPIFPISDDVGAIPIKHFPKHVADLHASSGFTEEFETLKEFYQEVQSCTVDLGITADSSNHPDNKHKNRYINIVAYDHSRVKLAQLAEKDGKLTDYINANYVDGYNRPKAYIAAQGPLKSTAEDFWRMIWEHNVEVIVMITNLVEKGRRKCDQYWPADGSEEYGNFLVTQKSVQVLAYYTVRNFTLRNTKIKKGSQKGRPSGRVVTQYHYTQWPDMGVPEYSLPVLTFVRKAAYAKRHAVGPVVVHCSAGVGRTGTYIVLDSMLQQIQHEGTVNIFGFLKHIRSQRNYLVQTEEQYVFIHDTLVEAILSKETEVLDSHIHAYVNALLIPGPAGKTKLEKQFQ
Description: as §1, §2, §3, §4, §5, §6
The PTP Zeta cDNA was amplified from human placenta single strand cDNA (Clontech RNA) using the following oligonucleotides 5′oligo: 5′-[…]-3′ (SEQ ID NO: 10) 3′oligo: 5′-[…]-3′ (SEQ ID NO: 11) and subsequently ligated into pGEX 6P-1 Eco RI/Xho I sites.

PTP PEST = target: T4, PTP PEST (Homo sapiens, UniProt Q05209)
T4 construct: made in house; host or cells: E. coli BL-21 (pGEX 6P-1)
T4 sequence (Q05209 1-343 limits assumed): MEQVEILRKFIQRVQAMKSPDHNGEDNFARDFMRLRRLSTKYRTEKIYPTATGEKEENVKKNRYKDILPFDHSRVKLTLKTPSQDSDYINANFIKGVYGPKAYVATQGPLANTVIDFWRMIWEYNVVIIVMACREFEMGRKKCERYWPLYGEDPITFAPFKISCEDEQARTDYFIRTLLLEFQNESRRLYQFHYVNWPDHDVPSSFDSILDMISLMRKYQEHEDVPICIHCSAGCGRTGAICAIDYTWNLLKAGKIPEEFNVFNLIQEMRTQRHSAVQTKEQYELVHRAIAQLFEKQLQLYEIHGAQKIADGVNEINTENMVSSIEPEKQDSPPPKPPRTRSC
Description: as §1, §2, §3, §4, §5, §6
The PTP PEST CDNA was amplified from an HeLa cDNA library (Clonetech RNA) using the following oligonucleotides: 5′oligo: 5′-[…]-3′ (SEQ ID NO: 14) 3′oligo: 5′-[…]-3′ (SEQ ID NO: 15) It was subsequently ligated into the Eco RI/Xho I sites of pGEX 6P-1.

SMILES | IC50 (PTP ALPHA) | IC50 (PTP DEP1) | IC50 (PTP ZETA) | IC50 (PTP PEST)
CN(C)CC(COc1ccc(S(=O)(=O)C(F)(F)F)cc1[N+](=O)[O-])Oc1ccc(S(=O)(=O)C(F)(F)F)cc1[N+](=O)[O-] (centres unmarked) [Example 24, [2,3-Bis-(2-nitro-4-trifluoromethanesulfonyl-phenoxy)-propyl]-dimethyl-amine] | > 100 µM | – | – | –
O=C(Cc1ccc(CC(=O)Nc2cccc(S(=O)(=O)C(F)(F)F)c2)cc1)Nc1cccc(S(=O)(=O)C(F)(F)F)c1 [Example 22, N-(3-Trifluoromethanesulfonyl-phenyl)-2-{4-[(3-trifluoromethanesulfonyl-phenylcarbamoyl)-methyl]-phenyl}-acetamide] | > 100 µM | – | – | –
O=C(O)Cc1ccccc1CC(=O)Nc1cccc(S(=O)(=O)C(F)(F)F)c1 [Example 27, {2-[(3-Trifluoromethanesulfonyl-phenylcarbamoyl)-methyl]-phenyl}-acetic acid] | > 100 µM | – | – | –
NC(=O)c1cc(Oc2ccc(S(=O)(=O)C(F)(F)F)cc2[N+](=O)[O-])cc(Oc2ccc(S(=O)(=O)C(F)(F)F)cc2[N+](=O)[O-])c1 [Example 30, 3,5-Bis-(2-nitro-4-trifluoromethanesulfonyl-phenoxy)-benzamide] | > 100 µM | – | – | –
Cc1cc(NS(=O)(=O)C(F)(F)F)ccc1CCc1ccc(NS(=O)(=O)C(F)(F)F)cc1C [Example 67, 1,2-Bis(2-methyl-4-trifluoromethylsulfonamidophenyl)ethane] | 53.6 µM | 85.6 µM | > 100 µM | 10.5 µM
CCOC(=O)c1cc(Oc2ccc(S(=O)(=O)C(F)(F)F)cc2[N+](=O)[O-])c(C(=O)OCC)cc1O [Example 26, 2-Hydroxy-5-(2-nitro-4-trifluoromethanesulfonyl-phenoxy)-terephthalic acid diethyl ester] | > 100 µM | – | – | –
O=S(=O)(Nc1ccc(Oc2ccc(Oc3ccc(NS(=O)(=O)C(F)(F)F)cc3)cc2)cc1)C(F)(F)F [Example 71, 1,4-Bis(4-trifluoromethylsulfonamidophenoxy)benzene] | 11.9 µM | 49 µM | 64.3 µM | 0.98 µM
CCOC(=O)COc1ccc(S(=O)(=O)c2ccc(Oc3ccc(S(=O)(=O)C(F)(F)F)cc3)cc2)cc1 [Example 19, {4-[4-(4-trifluoromethanesulfonyl-phenoxy)-benzenesulfonyl]-phenoxy}-acetic acid ethyl ester] | > 100 µM | – | – | –
O=S(=O)(Nc1ccc(CCc2ccc(NS(=O)(=O)C(F)(F)F)cc2)cc1)C(F)(F)F [Example 66, 1,2-Bis(4-trifluoromethylsulfonamidophenyl)ethane] | > 100 µM | > 100 µM | > 100 µM | 13.3 µM
O=C(NCc1ccc(S(=O)(=O)C(F)(F)F)cc1)c1ccc(S(=O)(=O)C(F)(F)F)cc1 [Example 5, N-(4-Trifluoromethylsulfonylbenzyl)-4-trifluoromethylsulfonylbenzamide] | > 100 µM | > 100 µM | > 100 µM | > 100 µM
O=[N+]([O-])c1cc(S(=O)(=O)C(F)(F)F)ccc1Oc1cc(CN2CCOCC2)c(Oc2ccc(S(=O)(=O)C(F)(F)F)cc2[N+](=O)[O-])cc1CN1CCOCC1 [Example 23, 3,6-Bis-(morpholin-4-ylmethyl)-2,5-bis-(2-nitro-4-trifluoromethanesulfonyl-phenoxy)-benzene] | > 100 µM | – | – | –
O=S(=O)(Nc1ccc(OCCCCOc2ccc(NS(=O)(=O)C(F)(F)F)cc2)cc1)C(F)(F)F [Example 70, 1,4-Bis(4-trifluoromethylsulfonamidophenoxy)butane] | 46 µM | 24.5 µM | > 100 µM | 6.75 µM
O=C(O)c1cc(Oc2ccc(S(=O)(=O)C(F)(F)F)cc2)cc(Oc2ccc(S(=O)(=O)C(F)(F)F)cc2)c1 [Example 31, 3,5-Bis-(4-trifluoromethanesulfonyl-phenoxy)-benzoic acid] | 6 µM | – | – | –
O=C(O)c1ccc(Oc2cccc(Oc3ccc(S(=O)(=O)C(F)(F)F)cc3)c2)cc1 [Example 18, 4-[3-(4-Trifluoromethanesulfonyl-phenoxy)-phenoxy]-benzoic acid] | 40.4 µM | – | – | –
O=C(c1ccccc1)N(Cc1ccc(S(=O)(=O)C(F)(F)F)cc1)Cc1ccc(S(=O)(=O)C(F)(F)F)cc1 [Example 3, N,N-Bis(4-trifluoromethylsulfonylbenzyl)benzamide] | > 100 µM | 40.9 µM | > 100 µM | > 100 µM
O=C(Cc1ccccc1CC(=O)Nc1cccc(S(=O)(=O)C(F)(F)F)c1)Nc1cccc(S(=O)(=O)C(F)(F)F)c1 [Example 20, N-(3-Trifluoromethanesulfonyl-phenyl)-2-{2-[(3-trifluoromethanesulfonyl-phenylcarbamoyl)-methyl]-phenyl}-acetamide] | > 100 µM | – | – | –
O=C(O)Cc1ccc(CC(=O)Nc2cccc(S(=O)(=O)C(F)(F)F)c2)cc1 [Example 29, {4-[(3-Trifluoromethanesulfonyl-phenylcarbamoyl)-methyl]-phenyl}-acetic acid] | 19.3 µM | – | – | –
O=C(Cc1cccc(CC(=O)Nc2cccc(S(=O)(=O)C(F)(F)F)c2)c1)Nc1cccc(S(=O)(=O)C(F)(F)F)c1 [Example 21, N-(3-Trifluoromethanesulfonyl-phenyl)-2-{3-[(3-trifluoromethanesulfonyl-phenylcarbamoyl)-methyl]-phenyl}-acetamide] | > 100 µM | – | – | –
O=C(O)Cc1cccc(CC(=O)Nc2cccc(S(=O)(=O)C(F)(F)F)c2)c1 [Example 28, {3-[(3-Trifluoromethanesulfonyl-phenylcarbamoyl)-methyl]-phenyl}-acetic acid] | 36.2 µM | – | – | –
CCNc1ccc(S(=O)(=O)C(F)(F)F)cc1NC(=O)Cc1ccc(S(C)(=O)=O)cc1 [Example 25, N-(2-Ethylamino-5-trifluoromethanesulfonyl-phenyl)-2-(4-methanesulfonyl-phenyl)-acetamide] | > 100 µM | – | – | –

From patent US6596772B1, “Phosphate mimics and methods of treatment using phosphatase inhibitors” (Sugen, Inc., priority 1999, dated 2003)
